pIC50: −log10 of the molar value. *1 amine or outer side, *2 acyl side, *3 side chain or, on linkers, in order; H or OH if unused. Where a SMILES comes first, the peptide text is derived from it. Bridges are numbered along the chain shown (N, C = ends). [ ]: non-standard residue; d: D form. Bip = N[C@@H](Cc1ccc(-c2ccccc2)cc1)C(=O)O; Phe(4-NH2) = Nc1ccc(C[C@H](N)C(=O)O)cc1; Phe(3-Me) = Cc1cccc(C[C@H](N)C(=O)O)c1; NH(CH2)8CO = O=C(CCCCCCCCN[*:1])[*:2]; Cha = N[C@@H](CC1CCCCC1)C(=O)O; NMeA = CN[C@@H](C)C(=O)O; Orn = NCCC[C@H](N)C(=O)O; Aun = NCCCCCCCCCCC(=O)O; Dab = NCC[C@H](N)C(=O)O
Target: T1, PD-1/PD-L1 interaction (PE-labeled human PD-L1-Ig binding to Jurkat cell line over-expressing human PD-1) (Homo sapiens, UniProt Q15116)
T1 construct: expressed in transfected cells; host or cells: Jurkat
Assay: Jurkat-PD-1 Cell Binding High-Content Screening Assay (CBA)
Details: PE-labeled PD-L1-Ig 20 nM final, Jurkat-hPD-1 cells; read-out: Jurkat HPD1 PDL1 IC50
How it was run: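 Read-out: high-content imaging of cell-bound PE fluorescence, with Hoechst 33342 nuclear counterstain after paraformaldehyde fixation. Before labeled ligand (20 nM final, 1 h) was added, compound sat on the cells for 2 h at 37 °C in DMEM/10% FCS.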

T1 sequence (Q15116 25-288): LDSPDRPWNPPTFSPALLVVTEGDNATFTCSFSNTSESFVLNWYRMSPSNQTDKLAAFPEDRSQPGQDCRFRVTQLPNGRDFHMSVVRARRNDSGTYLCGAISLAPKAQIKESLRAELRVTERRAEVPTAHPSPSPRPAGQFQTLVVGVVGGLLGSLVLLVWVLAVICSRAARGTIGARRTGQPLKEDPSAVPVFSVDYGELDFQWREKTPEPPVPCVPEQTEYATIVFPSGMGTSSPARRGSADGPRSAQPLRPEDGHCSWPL

SMILES: Cc1cccc(C[C@@H]2NC(=O)[C@H](CC(=O)O)NC(=O)[C@H](Cc3ccc(N)cc3)NC(=O)[C@H]([C@@H](C)O)NC(=O)CSC[C@@H](C(=O)N[C@@H](CCN)C(=O)NCCCCCCCCC(=O)NCCCCCCCCCCC(=O)O)NC(=O)[C@H](CCCN)NC(=O)[C@H](C(C)C)NC(=O)[C@H](CC3CCCCC3)NC(=O)[C@H](CCN)NC(=O)[C@@H](CC(C)C)NC(=O)[C@H](C)N(C)C(=O)[C@H](Cc3ccc(N)cc3)NC(=O)[C@H](Cc3ccc(-c4ccccc4)cc3)NC(=O)[C@H](Cc3ccc(N)cc3)NC2=O)c1 [Example 2689] ({CH2CO}-T[Phe(4-NH2)]D[Phe(3-Me)][Phe(4-NH2)][Bip][Phe(4-NH2)][NMeA][dL][Dab][Cha]V[Orn]C[Dab][NH(CH2)8CO][Aun]-OH; thioether N-14)
- pIC50: 8.21

From patent US20260070945A1, “MACROCYCLIC IMMUNOMODULATORS” (Bristol-Myers Squibb Company, priority 2022, published 2026)
